# Laboratory results published in publication PMC12772150, “PIP2 corrects an endothelial Piezo1 channelopathy” (Proceedings of the National Academy of Sciences of the …, 2025).
# pIC50: −log10 of the molar value.
# How the values were obtained:
# Piezo1 [1] = target: T1, Piezo1 (Mus musculus, UniProt E2JF22, R2482H); assay: cell-attached single-channel patch clamp, […] PIP2, no Yoda1 ([…] inhibition); assay type: cell-based
# T1 construct: mutant channel in capillary endothelial cells of Piezo1EC-Mutant mice
# T1 sequence (E2JF22 whole entry R2482H): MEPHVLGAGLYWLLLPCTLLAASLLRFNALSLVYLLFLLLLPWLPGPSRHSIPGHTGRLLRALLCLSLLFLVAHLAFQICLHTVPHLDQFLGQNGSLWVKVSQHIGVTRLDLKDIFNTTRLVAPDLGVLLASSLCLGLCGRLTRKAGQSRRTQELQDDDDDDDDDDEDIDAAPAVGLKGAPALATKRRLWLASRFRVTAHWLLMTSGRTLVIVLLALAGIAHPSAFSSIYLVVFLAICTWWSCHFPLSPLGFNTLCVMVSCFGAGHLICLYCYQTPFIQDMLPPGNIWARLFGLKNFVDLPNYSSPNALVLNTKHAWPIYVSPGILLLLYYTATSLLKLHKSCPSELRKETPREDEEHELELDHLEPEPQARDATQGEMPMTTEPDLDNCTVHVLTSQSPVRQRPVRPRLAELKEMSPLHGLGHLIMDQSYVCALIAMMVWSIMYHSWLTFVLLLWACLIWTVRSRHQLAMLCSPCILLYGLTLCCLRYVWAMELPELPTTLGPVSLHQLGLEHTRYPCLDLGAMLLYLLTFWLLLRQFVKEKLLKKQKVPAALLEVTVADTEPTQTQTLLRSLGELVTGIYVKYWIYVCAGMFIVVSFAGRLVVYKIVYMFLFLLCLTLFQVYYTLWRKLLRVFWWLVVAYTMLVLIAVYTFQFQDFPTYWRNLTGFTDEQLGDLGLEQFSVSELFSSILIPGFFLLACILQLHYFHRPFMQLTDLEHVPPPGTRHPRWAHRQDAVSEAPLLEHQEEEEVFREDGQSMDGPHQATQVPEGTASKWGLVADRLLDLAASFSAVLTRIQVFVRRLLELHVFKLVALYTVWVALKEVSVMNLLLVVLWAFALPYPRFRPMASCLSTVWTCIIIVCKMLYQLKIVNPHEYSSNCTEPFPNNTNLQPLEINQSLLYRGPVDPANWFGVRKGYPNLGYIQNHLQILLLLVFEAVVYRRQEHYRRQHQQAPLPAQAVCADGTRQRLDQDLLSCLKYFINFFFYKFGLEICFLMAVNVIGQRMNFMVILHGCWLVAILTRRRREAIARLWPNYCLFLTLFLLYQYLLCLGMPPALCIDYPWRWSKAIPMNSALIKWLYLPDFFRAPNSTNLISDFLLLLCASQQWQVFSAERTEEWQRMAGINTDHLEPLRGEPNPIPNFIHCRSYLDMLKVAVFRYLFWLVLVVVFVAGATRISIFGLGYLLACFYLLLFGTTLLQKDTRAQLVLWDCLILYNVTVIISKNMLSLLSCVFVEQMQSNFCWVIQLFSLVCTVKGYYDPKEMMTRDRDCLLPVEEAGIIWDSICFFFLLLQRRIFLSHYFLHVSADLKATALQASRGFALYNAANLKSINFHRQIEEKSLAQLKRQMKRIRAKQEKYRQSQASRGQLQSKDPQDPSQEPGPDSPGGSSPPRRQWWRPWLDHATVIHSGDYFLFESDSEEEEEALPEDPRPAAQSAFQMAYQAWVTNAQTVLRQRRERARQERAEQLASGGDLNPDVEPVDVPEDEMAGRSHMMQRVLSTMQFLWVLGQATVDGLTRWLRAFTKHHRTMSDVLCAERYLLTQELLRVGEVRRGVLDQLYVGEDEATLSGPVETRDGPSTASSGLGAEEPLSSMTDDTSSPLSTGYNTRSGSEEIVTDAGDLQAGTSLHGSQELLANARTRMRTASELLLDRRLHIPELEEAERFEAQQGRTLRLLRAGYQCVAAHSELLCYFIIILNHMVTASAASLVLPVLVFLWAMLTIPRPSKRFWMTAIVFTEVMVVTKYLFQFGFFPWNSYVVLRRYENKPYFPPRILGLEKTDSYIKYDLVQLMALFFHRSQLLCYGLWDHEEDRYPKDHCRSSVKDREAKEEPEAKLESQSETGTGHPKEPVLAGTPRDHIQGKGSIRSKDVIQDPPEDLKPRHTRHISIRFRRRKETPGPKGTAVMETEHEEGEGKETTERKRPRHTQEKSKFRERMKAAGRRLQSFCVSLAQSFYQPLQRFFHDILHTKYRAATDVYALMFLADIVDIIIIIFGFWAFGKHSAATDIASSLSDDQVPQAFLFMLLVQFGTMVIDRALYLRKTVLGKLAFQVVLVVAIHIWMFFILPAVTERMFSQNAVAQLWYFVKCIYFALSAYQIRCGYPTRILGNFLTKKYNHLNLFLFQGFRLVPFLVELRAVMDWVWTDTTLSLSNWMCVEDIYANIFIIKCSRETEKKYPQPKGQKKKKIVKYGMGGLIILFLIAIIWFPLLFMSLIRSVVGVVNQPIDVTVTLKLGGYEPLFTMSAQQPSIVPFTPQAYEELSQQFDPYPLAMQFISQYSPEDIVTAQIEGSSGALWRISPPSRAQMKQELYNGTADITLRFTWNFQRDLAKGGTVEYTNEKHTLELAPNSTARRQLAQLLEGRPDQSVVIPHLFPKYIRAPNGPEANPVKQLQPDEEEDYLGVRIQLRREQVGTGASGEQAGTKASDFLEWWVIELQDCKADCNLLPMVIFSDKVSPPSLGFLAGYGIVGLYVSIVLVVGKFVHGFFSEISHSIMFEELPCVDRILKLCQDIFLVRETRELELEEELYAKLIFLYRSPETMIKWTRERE
# Piezo1 [2] = target: T2, Piezo1 (Mus musculus, UniProt E2JF22); assay: single-channel patch clamp (cell-attached concentration-response with Yoda1; outside-out patches with PIP2 in pipette); assay type: cell-based
# T2 construct: native channel in freshly isolated brain capillary endothelial cells
# T2 sequence (E2JF22 whole entry): as the sequence (E2JF22 whole entry R2482H) above, with H2482R counted along it
compound,measurement,setting,value
CCCCCCCCCCCCCCCC(=O)OC[C@H](COP(=O)(O)O[C@@H]1[C@H](O)[C@H](O)[C@@H](OP(=O)(O)O)[C@H](OP(=O)(O)O)[C@H]1O)OC(=O)CCCCCCCCCCCCCCC [diC16-PIP2],inhibition at 10 µM,Piezo1 [1],50%
same,pIC50,Piezo1 [2],~6.52
